Data on two compounds can be found in article PMC12063173, “Metabolic Profiling of a Mediterranean-Inspired (Poly)phenol-Rich Mixture in the Brain: Perfusion Effect and In Vitro Blood–Brain Barrier Transport Validation” (Journal of Agricultural and Food Chemistry, 2025).

The conditions of series [1]: rat, in vivo.
Method: (§2) Adult male Sprague–Dawley rats weighing 250–300 g were purchased from the Animal Experimentation Service of the University of Murcia (Murcia, Spain). […] Based on the experimental design shown in Figure 1, one capsule was administered by gavage to each fasting animal. A total of 40 animals were used in the study. Thirty animals received a capsule containing a mixture of different Mediterranean food extracts, while ten animals received a capsule with microcrystalline cellulose and served as the control group. […] To minimize animal use in accordance with the 3Rs principle, two control animals were sacrificed at each time point (one PB and one NPB). These controls served to identify potential endogenous compounds or background signals not related to the extract administration. All animals were fasted overnight prior to gavage and euthanized with carbon dioxide.
(§3) Plasma samples were extracted with ACN:formic acid (98:2, v/v), centrifuged and evaporated in a speed vacuum concentrator (Savant SPD14 0DDA). The evaporated samples were resuspended in 100 μL MeOH and filtered through 0.22 μm regenerated cellulose filters (Minisart Sartorius, Madrid, Spain). Next, half of the animals at each time point were perfused with ice-cold phosphate-buffered saline, and the blood-free brain was dissected out immediately and stored at – 80 °C until analysis, as previously reported.[37],[48]
(§4) Approximately 400 mg of brain tissue (perfused or nonperfused) was weighed and extensively washed with cold PBS to avoid external blood contamination. After weighting, the samples were placed in 2 mL screw cap tubes. […] The evaporated samples were resuspended in 100 μL MeOH and filtered through 0.22 μm regenerated cellulose filters.
(§5) We performed a targeted metabolomic analysis using an ultrahigh-performance liquid chromatographic system (UPLC) coupled to a quadrupole-time-of-flight (QTOF) mass spectrometer. The phenolic compounds were separated using an Agilent Poroshell 120 column (100 mm × 3 mm, 2.7 μm) and a 5 μL injection volume. […] The flow rate was set constant at 0.4 mL/min. The spectra were acquired in the m/z range from 100 to 1100, in negative polarity mode and an acquisition rate of 1.5 spectra per second. Quantitative data were processed using the Mass HunterQualitative Analysis software (version B.08.00, Agilent). A target screening strategy was applied for the qualitative analysis of possible metabolites derived from the consumption of the Mediterranean blend. […] These compounds encompass derived metabolites conjugated (glucuronides, sulfates, and sulfoglucuronides, among others). The exact mass of the proposed compound was extracted using an extraction window of 0.01 m/z. Metabolite quantification was performed by integrating the peak areas of their extracted ion chromatograms (EICs). Compounds with available standards were quantified using calibration curves derived from the respective standards, while other metabolites were semiquantified based on their peak area values.
The nature of series [2]: in vivo. The following applies: male, Sprague-Dawley, rat, po.
Method: (§6) Adult male Sprague–Dawley rats weighing 250–300 g were purchased from the Animal Experimentation Service of the University of Murcia (Murcia, Spain). […] Animals were maintained in a temperature-controlled environment with a 12 h light-dark cycle. […] Based on the experimental design shown in Figure 1, one capsule was administered by gavage to each fasting animal. A total of 40 animals were used in the study. Thirty animals received a capsule containing a mixture of different Mediterranean food extracts, while ten animals received a capsule with microcrystalline cellulose and served as the control group. At each time point (1, 3, 6, 8, and 24 h postadministration), six animals from the extract group were sacrificed, three with transcardial perfusion using saline (PB) and three without perfusion (NPB), to assess the distribution of extract-derived metabolites in plasma and brain. To minimize animal use in accordance with the 3Rs principle, two control animals were sacrificed at each time point (one PB and one NPB). […] All animals were fasted overnight prior to gavage and euthanized with carbon dioxide.
(§7) Blood samples collected by cardiac puncture in sodium heparin tubes at each time point after sacrifice were immediately centrifuged at 14,000 × g for 15 min at 4 °C, and the plasma was stored at −80 °C until their analysis. Plasma samples were extracted with ACN:formic acid (98:2, v/v), centrifuged and evaporated in a speed vacuum concentrator (Savant SPD14 0DDA). The evaporated samples were resuspended in 100 μL MeOH and filtered through 0.22 μm regenerated cellulose filters (Minisart Sartorius, Madrid, Spain).
(§8) We performed a targeted metabolomic analysis using an ultrahigh-performance liquid chromatographic system (UPLC) coupled to a quadrupole-time-of-flight (QTOF) mass spectrometer. The phenolic compounds were separated using an Agilent Poroshell 120 column (100 mm × 3 mm, 2.7 μm) and a 5 μL injection volume. The mobile phases used were 0.1% formic acid in water (A) and 0.1% formic acid in ACN (B), and the gradient was: 0–3 min, 5–15% B; 3–11 min, 15–30% B; 11–14 min, 30–50% B, 14–16 min, 50–90% B. Finally, the B content was decreased to the initial conditions (5%) in 1 min, and the column re-equilibrated for 4 min. The flow rate was set constant at 0.4 mL/min. The spectra were acquired in the m/z range from 100 to 1100, in negative polarity mode and an acquisition rate of 1.5 spectra per second.
Series [3] is described as follows: Targeted metabolomics (UPLC-ESI-QTOF) identification of metabolites in plasma, PB and NPB. The following applies: P plasma, PB perfused brain, NPB nonperfused brain; 1-24 h after oral capsule.
Method: as §2, §3, §4, §5
Series [4] can be described thus: Perfused brain (PB) kinetics of phenolic metabolites after oral capsule. Conditions: perfused brain, oral capsule, 0-24 h, n = 3 per time point. More on the design: AUC0-t PB: concentration or dose not given beside the values. It counts as in vivo, Sprague–Dawley rats. From the text:
(§1) Statistical analyses were applied depending on the experimental context.

Series [5] can be described thus: Nonperfused brain (NPB) kinetics of phenolic metabolites after oral capsule. It counts as in vivo, Sprague–Dawley rats. Details: AUC0-t NPB: concentration or dose not given beside the values.
From the text: as §1

For series [6], the system named is human brain microvascular endothelial cells (HBMECs). Kind of series: In vitro blood–brain barrier transport (Transwell). It counts as in vitro ADME. The following applies: HBMEC, mixtures at 2.5 μM final, 2 h. The procedure: The BBB transport model was established using human brain microvascular endothelial cells (HBMECs), following a methodology previously described.[49] Cells were maintained at 37 °C in a humidified environment with 5% CO2. HBMECs were seeded on 12-well Transwell inserts (12 mm, 0.4 μm pore polyester membrane; Corning, Madrid, Spain) and cultured for 6 days to form confluent monolayers suitable for transport studies. Transport assays were carried out in Hanks’ Balanced Salt Solution (HBSS) supplemented with 0.1% fetal bovine serum (FBS, v/v). The cells were exposed on the apical side to individual phenolic metabolites detected in the brain from the animal study, a representative mixture containing equal concentrations of these metabolites, or a physiological mixture reproducing their relative percentages as observed in the brain. All treatments were applied at a final concentration of 2.5 μM for 2 h (Supporting Information, Table S3). The integrity of the cell monolayers was confirmed by measuring transendothelial electrical resistance (TEER) at the start of the experiment (0 h) and after the last time point (2 h) using an EVOM2 Epithelial Volt Ohm Meter (World Precision Instruments, Inc., USA).
Samples from the apical and basolateral compartments were stored at −80 °C for further analysis. Transport of the compounds was evaluated using UPLC-qTOF as described elsewhere,[38] and transendothelial permeability expressed as a percentage of the ratio between the concentration in the basolateral compartment relative to the total concentration in both compartments.
Finally, one-way ANOVA with Tukey’s multiple comparisons test was exclusively applied to in vitro BBB transport experiments. The three tested conditions for each compound (individual compound, a mixture containing equal concentrations of these compounds, or a physiological mixture reproducing their relative percentages as observed in the brain were evaluated. Plots were performed using GraphPad 9.0 (GraphPad Software, Boston, Massachusetts, USA). Statistical significance was set at P < 0.05.
Figure 3 Transport efficiency of phenolic metabolites across the BBB. Human brain microvascular endothelial cells (HBMEC) were seeded onto semipermeable membranes. […] Detailed composition of both mixtures is given in the Supporting Information, Table S3. Media from the upper and lower compartments were collected, and endothelial transport was evaluated by UPLC-qTOF-MS. The transport percentage (%) was determined by the concentration ratio in the lower compartment to the total concentration (upper and lower compartments). All values are presented as mean ± SD from three independent experiments.

Details of series [7]: method as in doi:10.1016/j.jff.2015.09.019. Conditions: human, even upon high free ellagic acid intake; cited from earlier work.
Series [8] is described as follows: Plasma pharmacokinetics of phenolic metabolites after oral capsule of (poly)phenol-rich Mediterranean extract mixture. The following applies: male, Sprague-Dawley, rat, po, 22 mg extract blend per capsule, one capsule per animal.
Method: as §6, §7, §8
Where [9] appears, read: nonperfused brain, oral capsule, 0-24 h, n = 3 per time point.

Consider `O=S(=O)(O)Oc1ccc(C=Cc2cc(O)cc(O)c2)cc1` [resveratrol 4’-O-sulfate], for which the “concentration–time profile in brain (Figure 2)” value in series [1] was “Not detected”. Further, in series [2], the area under the curve AUC(0-t) came out at 0.026 ± 0.027 µM·h, the Cmax is 2.9 ± 2.8 nM, the MRT last is 10.7 h and the Tmax came out at 7.3 ± 1.2 h. The compound further showed a half-life in series [2] of 5.6 h. Further, the occurrence result in series [3] is on record as “restricted to plasma”.

For the compound `O=c1oc2c(O)c(O)cc3c(=O)oc4c(O)c(O)cc1c4c23` [ellagic acid], in series [4] (male, Sprague-Dawley, rat, 22 mg extract blend per capsule, one capsule per animal), the time of peak concentration (Tmax) is 16 ± 11 h. In series [4], the “AUC0-t PB” value amounted to 1.5 ± 1.1 pmol·h/g and the “Cmax PB” value was 0.1 ± 0.08 pmol/g tissue. In series [5] (NPB versus PB), the “concentration in NPB relative to PB” value is 9 fold. In series [5] (male, Sprague-Dawley, rat, 22 mg extract blend per capsule, one capsule per animal, nonperfused brain, oral capsule, 0-24 h, n = 3 per time point), the time to peak (Tmax) was 15 ± 13 h. Also, the MRT last in series [5] (male, Sprague-Dawley, rat, 22 mg extract blend per capsule, one capsule per animal, nonperfused brain, oral capsule, 0-24 h, n = 3 per time point, read-out: MRT0-t NPB) is 56.9 h. Also, in series [5] (male, Sprague-Dawley, rat, 22 mg extract blend per capsule, one capsule per animal, nonperfused brain, oral capsule, 0-24 h, n = 3 per time point, read-out: T1/2 NPB (converted)), the half-life is 36.3 h. For the same compound, in series [5] (setting [9]), the “AUC0-t NPB” value worked out at 7.1 ± 7.5 pmol·h/g and the “Cmax NPB” value was 0.9 ± 0.9 pmol/g tissue. The “transport efficiency in MIXperc compared with MIXeq” value in series [6] is given as “significantly higher transport efficiencies”. Moreover, the “free ellagic acid concentration in plasma” value in series [7] is listed as ≤ 100 nM. For the same compound, the occurrence result in series [3] was “PB, NPB, P”. Moreover, in series [8], the area under the curve AUC(0-t) stood at 0.0141 ± 0.0074 µM·h, the Cmax was 1.1 ± 0.8 nM, the MRT last was 103 h and the time to peak (Tmax) was found to be 10 ± 12 h.
